#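 How tested: cells in 96-well plates exposed to compound for 48 hours at five concentrations. At the TGI there is no net growth.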
# What was measured:
# Experiment in all cases: NCI-60 cell line screen, 48 h
# [1] = test system: A549 NSCLC
# [2] = test system: MOLT-4 leukemia
# [3] = test system: NCI-H23 lung
# [4] = test system: SK-OV-3 ovarian
# [5] = test system: DMS 114 small cell lung
# [6] = test system: SK-MEL-2 melanoma
# [7] = test system: SW-620 colon
# [8] = test system: HCC-2998 colon
# [9] = test system: SNB-75 CNS
# [10] = test system: NCI-H226 lung
# [11] = test system: SK-MEL-28 melanoma
# [12] = test system: KM20L2 colon
# [13] = test system: KM12 colon
# [14] = test system: CAKI-1 renal
# [15] = test system: TK-10 renal
# [16] = test system: HOP-92 NSCLC
# [17] = test system: HOP-62 NSCLC
# [18] = test system: HL-60(TB) leukemia
# [19] = test system: HCT-15 colon
# [20] = test system: M19-MEL melanoma
# [21] = test system: M14 melanoma
# [22] = test system: K-562 leukemia
# [23] = test system: OVCAR-5 ovarian
# [24] = test system: LXFL 529 NSCLC
# [25] = test system: UACC-257 melanoma
# [26] = test system: SF-268 CNS
# [27] = test system: SR leukemia
# [28] = test system: UO-31 renal
# [29] = test system: UACC-62 melanoma
# [30] = test system: SNB-78 CNS
# [31] = test system: U251 CNS
# [32] = test system: OVCAR-8 ovarian
# [33] = test system: NCI-H460 lung
# [34] = test system: A498 renal
# [35] = test system: ACHN renal
# [36] = test system: COLO 205 colon
# [37] = test system: DLD-1 colon
# [38] = test system: NCI-H522 lung
# [39] = test system: IGROV1 ovarian
# [40] = test system: HCT-116 colon
# [41] = test system: RPMI-8226 leukemia
# [42] = test system: SF-539 CNS
# [43] = test system: HOP-18 NSCLC
# [44] = test system: HT29 colon
# [45] = test system: DMS 273 small cell lung
# [46] = test system: XF 498 CNS
# [47] = test system: SF-295 CNS
# [48] = test system: EKVX NSCLC
# [49] = test system: 786-0 renal
# [50] = test system: SNB-19 CNS
# [51] = test system: CCRF-CEM leukemia
# [52] = test system: MALME-3M melanoma
# [53] = test system: SN12C renal
# [54] = test system: OVCAR-4 ovarian
# [55] = test system: RXF 393 renal
# [56] = test system: SK-MEL-5 melanoma
# [57] = test system: OVCAR-3 ovarian
# [58] = test system: RXF-631 renal
# [59] = test system: LOX IMVI melanoma
smiles,measurement,setting,value
COc1ccc([C@@H]2CC(=O)NCCCNCCCCNCCCN2)cc1,TGI,[1],> 100 µM
same,TGI,[2],> 100 µM
same,TGI,[3],> 100 µM
same,TGI,[4],> 100 µM
same,TGI,[5],> 100 µM
same,TGI,[6],> 100 µM
same,TGI,[7],> 100 µM
same,TGI,[8],> 100 µM
same,TGI,[9],> 100 µM
same,TGI,[10],> 100 µM
same,TGI,[11],> 100 µM
same,TGI,[12],> 100 µM
same,TGI,[13],> 100 µM
same,TGI,[14],> 100 µM
same,TGI,[15],> 100 µM
same,TGI,[16],> 100 µM
same,TGI,[17],> 100 µM
same,TGI,[18],> 100 µM
same,TGI,[19],> 100 µM
same,TGI,[20],> 100 µM
same,TGI,[21],> 100 µM
same,TGI,[22],> 100 µM
same,TGI,[23],> 100 µM
same,TGI,[24],> 100 µM
same,TGI,[25],> 100 µM
same,TGI,[26],> 100 µM
same,TGI,[27],> 100 µM
same,TGI,[28],> 100 µM
same,TGI,[29],> 100 µM
same,TGI,[30],> 100 µM
same,TGI,[31],> 100 µM
same,TGI,[32],> 100 µM
same,TGI,[33],> 100 µM
same,TGI,[34],> 100 µM
same,TGI,[35],> 100 µM
same,TGI,[36],> 100 µM
same,TGI,[37],> 100 µM
same,TGI,[38],> 100 µM
same,TGI,[39],> 100 µM
same,TGI,[40],> 100 µM
same,TGI,[41],> 100 µM
same,TGI,[42],> 100 µM
same,TGI,[43],> 100 µM
same,TGI,[44],> 100 µM
same,TGI,[45],> 100 µM
same,TGI,[46],> 100 µM
same,TGI,[47],> 100 µM
same,TGI,[48],> 100 µM
same,TGI,[49],> 100 µM
same,TGI,[50],> 100 µM
same,TGI,[51],> 100 µM
same,TGI,[52],> 100 µM
same,TGI,[53],> 100 µM
same,TGI,[54],> 100 µM
same,TGI,[55],> 100 µM
same,TGI,[56],> 100 µM
O=C(O)c1c([N+](=O)[O-])cc(C(F)(F)F)cc1[N+](=O)[O-],TGI,[1],> 100 µM
same,TGI,[2],> 100 µM
same,TGI,[3],> 100 µM
same,TGI,[6],> 100 µM
same,TGI,[7],> 100 µM
same,TGI,[10],> 100 µM
same,TGI,[11],> 100 µM
same,TGI,[12],> 100 µM
same,TGI,[13],> 100 µM
same,TGI,[14],> 100 µM
same,TGI,[15],> 100 µM
same,TGI,[16],> 100 µM
same,TGI,[17],> 100 µM
same,TGI,[18],> 100 µM
same,TGI,[19],> 100 µM
same,TGI,[20],> 100 µM
same,TGI,[21],> 100 µM
same,TGI,[22],> 100 µM
same,TGI,[23],> 100 µM
same,TGI,[24],> 100 µM
same,TGI,[25],> 100 µM
same,TGI,[57],> 100 µM
same,TGI,[26],> 100 µM
same,TGI,[27],> 100 µM
same,TGI,[28],> 100 µM
same,TGI,[30],> 100 µM
same,TGI,[31],> 100 µM
same,TGI,[58],> 100 µM
same,TGI,[32],> 100 µM
same,TGI,[33],> 100 µM
same,TGI,[34],> 100 µM
same,TGI,[35],> 100 µM
same,TGI,[36],> 100 µM
same,TGI,[38],> 100 µM
same,TGI,[39],> 100 µM
same,TGI,[40],> 100 µM
same,TGI,[41],> 100 µM
same,TGI,[42],> 100 µM
same,TGI,[44],> 100 µM
same,TGI,[59],> 100 µM
same,TGI,[45],> 100 µM
same,TGI,[46],> 100 µM
same,TGI,[47],> 100 µM
same,TGI,[48],> 100 µM
same,TGI,[49],> 100 µM
same,TGI,[50],> 100 µM
same,TGI,[51],> 100 µM
same,TGI,[53],> 100 µM
same,TGI,[54],> 100 µM
same,TGI,[55],> 100 µM
same,TGI,[56],> 100 µM
CN(C)C(=S)/N=c1\ssc(=S)n1-c1ccccc1,TGI,[1],81.8 µM
same,TGI,[3],77.5 µM
same,TGI,[4],> 100 µM
same,TGI,[5],31.1 µM
same,TGI,[6],21.6 µM
same,TGI,[7],22.6 µM
same,TGI,[8],46.3 µM
same,TGI,[9],34.1 µM
same,TGI,[10],26.9 µM
same,TGI,[11],30.5 µM
same,TGI,[12],33.2 µM
same,TGI,[13],22.7 µM
same,TGI,[14],33.3 µM
same,TGI,[15],31.4 µM
same,TGI,[16],34.7 µM
same,TGI,[17],74.2 µM
same,TGI,[18],44.4 µM
same,TGI,[19],28.9 µM
same,TGI,[20],30.4 µM
same,TGI,[21],28.6 µM
same,TGI,[22],42.6 µM
same,TGI,[23],29.9 µM
same,TGI,[24],25.1 µM
same,TGI,[25],29.6 µM
same,TGI,[26],32.8 µM
same,TGI,[28],44.1 µM
same,TGI,[29],30.6 µM
same,TGI,[30],40 µM
same,TGI,[31],30.2 µM
same,TGI,[32],28.5 µM
same,TGI,[33],33.1 µM
same,TGI,[34],57.7 µM
same,TGI,[35],32.1 µM
same,TGI,[37],26.9 µM
same,TGI,[38],27.8 µM
same,TGI,[39],39.1 µM
same,TGI,[40],27.2 µM
same,TGI,[42],30.5 µM
same,TGI,[43],> 100 µM
same,TGI,[44],37.5 µM
same,TGI,[45],38.3 µM
same,TGI,[46],27.9 µM
same,TGI,[47],46.6 µM
same,TGI,[48],43.6 µM
same,TGI,[49],30.5 µM
same,TGI,[50],> 100 µM
same,TGI,[51],> 100 µM
same,TGI,[52],31 µM
same,TGI,[53],28.8 µM
same,TGI,[54],29.4 µM
same,TGI,[55],33 µM
same,TGI,[56],> 100 µM
CCOC(=O)C1(Br)C(c2ccccc2)NC(=O)N(C2OC(COC(=O)c3ccccc3)C(OC(=O)c3ccccc3)C2OC(=O)c2ccccc2)C1(C)Br (configuration not stated),TGI,[1],> 100 µM
same,TGI,[2],59 µM
same,TGI,[3],> 100 µM
same,TGI,[4],> 100 µM
same,TGI,[5],49.6 µM
same,TGI,[6],> 100 µM
same,TGI,[7],22.4 µM
same,TGI,[8],> 100 µM
same,TGI,[9],> 90.7 µM
same,TGI,[11],> 83.8 µM
same,TGI,[12],> 100 µM
same,TGI,[13],99.6 µM
same,TGI,[14],> 100 µM
same,TGI,[15],> 100 µM
same,TGI,[16],69.9 µM
same,TGI,[17],> 100 µM
same,TGI,[19],> 50.1 µM
same,TGI,[20],> 100 µM
same,TGI,[21],> 63.6 µM
same,TGI,[22],19.3 µM
same,TGI,[24],> 75.7 µM
same,TGI,[25],52.4 µM
same,TGI,[57],> 89.6 µM
same,TGI,[26],> 100 µM
same,TGI,[28],> 94.8 µM
same,TGI,[29],60.1 µM
same,TGI,[31],> 100 µM
same,TGI,[58],50 µM
same,TGI,[32],> 100 µM
same,TGI,[33],> 100 µM
same,TGI,[34],> 100 µM
same,TGI,[35],> 100 µM
same,TGI,[36],> 65.7 µM
same,TGI,[37],> 100 µM
same,TGI,[38],20.3 µM
same,TGI,[39],> 100 µM
same,TGI,[40],52.2 µM
same,TGI,[41],33.2 µM
same,TGI,[42],> 100 µM
same,TGI,[43],> 100 µM
same,TGI,[44],> 100 µM
same,TGI,[59],> 100 µM
same,TGI,[45],> 100 µM
same,TGI,[47],> 100 µM
same,TGI,[48],> 94.5 µM
same,TGI,[49],> 100 µM
same,TGI,[50],> 100 µM
same,TGI,[51],18.8 µM
same,TGI,[52],66.7 µM
same,TGI,[53],> 100 µM
same,TGI,[54],43.4 µM
same,TGI,[55],31 µM
same,TGI,[56],31.3 µM

# — PubChem BioAssay (NCI)
